Experimental data as given in ChEMBL document CHEMBL3639017, “Thiazolyl mGluR5 antagonists and methods for their use” (2013).

Molecular target: Metabotropic glutamate receptor 5 (Rattus norvegicus, UniProt P31424)
Assay: Binding Assay: Binding assays were performed as described in Schaffhauser H, Richards J G, Cartmell J, Chaboz S, Kemp J A, Klingelschmidt A, Messer J, Stadler H, Woltering T and Mutel V (1998) In vitro binding characteristics of a new selective group II metabotropic glutamate receptor radioligand, [3H]LY354740, in rat brain. Mol Pharmacol 53:228-233) at room temperature with slight modifications.
Type: tissue-based

Sequence of Metabotropic glutamate receptor 5 (P31424 whole entry): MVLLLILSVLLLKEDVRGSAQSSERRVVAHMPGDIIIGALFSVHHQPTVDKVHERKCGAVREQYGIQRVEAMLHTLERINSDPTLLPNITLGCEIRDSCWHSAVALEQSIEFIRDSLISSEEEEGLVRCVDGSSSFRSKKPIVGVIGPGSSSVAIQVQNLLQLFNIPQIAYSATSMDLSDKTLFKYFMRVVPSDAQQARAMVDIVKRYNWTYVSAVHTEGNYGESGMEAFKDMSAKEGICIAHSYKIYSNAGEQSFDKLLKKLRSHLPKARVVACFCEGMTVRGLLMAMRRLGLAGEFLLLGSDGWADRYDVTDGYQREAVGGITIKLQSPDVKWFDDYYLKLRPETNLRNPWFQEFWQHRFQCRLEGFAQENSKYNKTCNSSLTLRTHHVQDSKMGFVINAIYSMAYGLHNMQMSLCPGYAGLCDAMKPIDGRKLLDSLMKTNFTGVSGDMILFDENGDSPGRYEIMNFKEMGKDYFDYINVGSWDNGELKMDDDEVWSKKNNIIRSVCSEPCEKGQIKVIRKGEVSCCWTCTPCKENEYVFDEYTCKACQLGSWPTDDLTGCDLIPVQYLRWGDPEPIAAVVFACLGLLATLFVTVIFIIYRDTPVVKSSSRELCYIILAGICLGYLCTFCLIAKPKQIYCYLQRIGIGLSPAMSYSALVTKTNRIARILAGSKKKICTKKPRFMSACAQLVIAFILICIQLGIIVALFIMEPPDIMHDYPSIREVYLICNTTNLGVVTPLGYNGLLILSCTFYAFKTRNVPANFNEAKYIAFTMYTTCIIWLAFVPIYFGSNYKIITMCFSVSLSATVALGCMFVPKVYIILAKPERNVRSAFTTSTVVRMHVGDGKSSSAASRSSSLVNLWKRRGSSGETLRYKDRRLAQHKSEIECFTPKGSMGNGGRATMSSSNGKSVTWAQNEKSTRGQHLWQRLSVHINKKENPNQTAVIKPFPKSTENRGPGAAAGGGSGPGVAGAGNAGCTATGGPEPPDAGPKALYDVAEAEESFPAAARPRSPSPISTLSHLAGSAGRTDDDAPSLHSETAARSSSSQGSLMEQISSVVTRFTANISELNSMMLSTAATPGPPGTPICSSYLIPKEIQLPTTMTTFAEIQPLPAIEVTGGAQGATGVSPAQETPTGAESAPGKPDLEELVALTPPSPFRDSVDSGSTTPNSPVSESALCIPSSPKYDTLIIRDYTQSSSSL

Cc1nc(C#Cc2ccc(-c3ccccc3C#N)nc2)cs1
Ki: 2.6 nM
